Measured values taken from PubChem BioAssay (NCI).
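The compound was tested at five concentrations on cells cultured in 96-well plates, with a 48-hour exposure period. GI50 marks 50% less growth. Definition used: TGI = concentration required for complete inhibition of growth.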

Experiments:
Assay in all cases: NCI anticancer screen, dose series, 48 h
786-0 renal = test system: 786-0 renal
A498 renal = test system: A498 renal
A549 NSCLC = test system: A549 NSCLC
ACHN renal = test system: ACHN renal
BT-549 breast = test system: BT-549 breast
CAKI-1 renal = test system: CAKI-1 renal
CCRF-CEM leukemia = test system: CCRF-CEM leukemia
COLO 205 colon = test system: COLO 205 colon
DU-145 prostate = test system: DU-145 prostate
EKVX NSCLC = test system: EKVX NSCLC
HCC-2998 colon = test system: HCC-2998 colon
HCT-116 colon = test system: HCT-116 colon
HCT-15 colon = test system: HCT-15 colon
HL-60(TB) leukemia = test system: HL-60(TB) leukemia
HOP-62 NSCLC = test system: HOP-62 NSCLC
HOP-92 NSCLC = test system: HOP-92 NSCLC
HS 578T breast = test system: HS 578T breast
HT29 colon = test system: HT29 colon
IGROV1 ovarian = test system: IGROV1 ovarian
K-562 leukemia = test system: K-562 leukemia
KM12 colon = test system: KM12 colon
LOX IMVI melanoma = test system: LOX IMVI melanoma
M14 melanoma = test system: M14 melanoma
MALME-3M melanoma = test system: MALME-3M melanoma
MCF7 breast = test system: MCF7 breast
MDA-MB-231 breast = test system: MDA-MB-231 breast
MDA-MB-435 = test system: MDA-MB-435
MOLT-4 leukemia = test system: MOLT-4 leukemia
NCI-H226 lung = test system: NCI-H226 lung
NCI-H23 lung = test system: NCI-H23 lung
NCI-H460 lung = test system: NCI-H460 lung
NCI-H522 lung = test system: NCI-H522 lung
NCI/ADR-RES ovarian = test system: NCI/ADR-RES ovarian
OVCAR-3 ovarian = test system: OVCAR-3 ovarian
OVCAR-4 ovarian = test system: OVCAR-4 ovarian
OVCAR-5 ovarian = test system: OVCAR-5 ovarian
OVCAR-8 ovarian = test system: OVCAR-8 ovarian
PC-3 prostate = test system: PC-3 prostate
RPMI-8226 leukemia = test system: RPMI-8226 leukemia
RXF 393 renal = test system: RXF 393 renal
SF-268 CNS = test system: SF-268 CNS
SF-295 CNS = test system: SF-295 CNS
SF-539 CNS = test system: SF-539 CNS
SK-MEL-2 melanoma = test system: SK-MEL-2 melanoma
SK-MEL-28 melanoma = test system: SK-MEL-28 melanoma
SK-MEL-5 melanoma = test system: SK-MEL-5 melanoma
SK-OV-3 ovarian = test system: SK-OV-3 ovarian
SN12C renal = test system: SN12C renal
SNB-19 CNS = test system: SNB-19 CNS
SNB-75 CNS = test system: SNB-75 CNS
SR leukemia = test system: SR leukemia
SW-620 colon = test system: SW-620 colon
T-47D breast = test system: T-47D breast
TK-10 renal = test system: TK-10 renal
U251 CNS = test system: U251 CNS
UACC-257 melanoma = test system: UACC-257 melanoma
UACC-62 melanoma = test system: UACC-62 melanoma
UO-31 renal = test system: UO-31 renal

SMILES: Cc1nn(CCO)c(C)c1N=[N+]([O-])c1c(C)nn(CCO)c1C
- GI50 (786-0 renal): 10.1 µM
- TGI (786-0 renal): 41.5 µM
- GI50 (A498 renal): 15.9 µM
- TGI (A498 renal): 29.8 µM
- GI50 (A549 NSCLC): 14.8 µM
- TGI (A549 NSCLC): 36.2 µM
- GI50 (ACHN renal): 1.36 µM
- TGI (ACHN renal): 2.91 µM
- GI50 (BT-549 breast): 2.13 µM
- TGI (BT-549 breast): 6.48 µM
- GI50 (CAKI-1 renal): 1.51 µM
- TGI (CAKI-1 renal): 3.33 µM
- GI50 (CCRF-CEM leukemia): 3.53 µM
- TGI (CCRF-CEM leukemia): 33.5 µM
- GI50 (COLO 205 colon): 0.296 µM
- TGI (COLO 205 colon): 0.802 µM
- GI50 (DU-145 prostate): 2.92 µM
- TGI (DU-145 prostate): 7.88 µM
- GI50 (EKVX NSCLC): 5.62 µM
- TGI (EKVX NSCLC): 20.6 µM
- GI50 (HCC-2998 colon): 13.7 µM
- TGI (HCC-2998 colon): 27.2 µM
- GI50 (HCT-116 colon): 2.12 µM
- GI50 (HCT-15 colon): 2.4 µM
- TGI (HCT-15 colon): 6.5 µM
- GI50 (HL-60(TB) leukemia): 2.5 µM
- TGI (HL-60(TB) leukemia): 9.3 µM
- GI50 (HOP-62 NSCLC): 20.4 µM
- TGI (HOP-62 NSCLC): > 57.9 µM
- GI50 (HOP-92 NSCLC): 1.83 µM
- TGI (HOP-92 NSCLC): 7.19 µM
- GI50 (HS 578T breast): 17.6 µM
- TGI (HS 578T breast): 53.1 µM
- GI50 (HT29 colon): 3.59 µM
- TGI (HT29 colon): 13.7 µM
- GI50 (IGROV1 ovarian): 4.8 µM
- TGI (IGROV1 ovarian): 21.8 µM
- GI50 (K-562 leukemia): 2.19 µM
- TGI (K-562 leukemia): 7.13 µM
- GI50 (KM12 colon): 12.6 µM
- TGI (KM12 colon): 26 µM
- GI50 (LOX IMVI melanoma): 3 µM
- TGI (LOX IMVI melanoma): 7.69 µM
- GI50 (M14 melanoma): 1.88 µM
- TGI (M14 melanoma): > 19.7 µM
- GI50 (MALME-3M melanoma): 0.723 µM
- TGI (MALME-3M melanoma): 2.4 µM
- GI50 (MCF7 breast): 2.64 µM
- TGI (MCF7 breast): 8.36 µM
- GI50 (MDA-MB-231 breast): 13.5 µM
- TGI (MDA-MB-231 breast): 28.8 µM
- GI50 (MDA-MB-435): 1.59 µM
- TGI (MDA-MB-435): 3.53 µM
- GI50 (MOLT-4 leukemia): 8.47 µM
- TGI (MOLT-4 leukemia): 33.3 µM
- GI50 (NCI-H226 lung): 16.1 µM
- TGI (NCI-H226 lung): 37 µM
- GI50 (NCI-H23 lung): 4.95 µM
- TGI (NCI-H23 lung): 10.6 µM
- GI50 (NCI-H460 lung): 17.8 µM
- TGI (NCI-H460 lung): 37.8 µM
- GI50 (NCI-H522 lung): 1.03 µM
- TGI (NCI-H522 lung): 2.88 µM
- GI50 (NCI/ADR-RES ovarian): 11.8 µM
- TGI (NCI/ADR-RES ovarian): 39 µM
- GI50 (OVCAR-3 ovarian): 1.92 µM
- TGI (OVCAR-3 ovarian): 3.65 µM
- GI50 (OVCAR-4 ovarian): 5.88 µM
- TGI (OVCAR-4 ovarian): 15.8 µM
- GI50 (OVCAR-5 ovarian): 11.3 µM
- TGI (OVCAR-5 ovarian): 24.2 µM
- GI50 (OVCAR-8 ovarian): 2.19 µM
- TGI (OVCAR-8 ovarian): 4.54 µM
- GI50 (PC-3 prostate): 4.99 µM
- TGI (PC-3 prostate): 20.9 µM
- GI50 (RPMI-8226 leukemia): 3.64 µM
- TGI (RPMI-8226 leukemia): 14.8 µM
- GI50 (RXF 393 renal): 1.74 µM
- TGI (RXF 393 renal): 3.73 µM
- GI50 (SF-268 CNS): 15.6 µM
- TGI (SF-268 CNS): 31.2 µM
- GI50 (SF-295 CNS): 15.3 µM
- TGI (SF-295 CNS): 30 µM
- GI50 (SF-539 CNS): 2.13 µM
- TGI (SF-539 CNS): 5.51 µM
- GI50 (SK-MEL-2 melanoma): 5.79 µM
- TGI (SK-MEL-2 melanoma): 40.9 µM
- GI50 (SK-MEL-28 melanoma): 2.84 µM
- TGI (SK-MEL-28 melanoma): 7.19 µM
- GI50 (SK-MEL-5 melanoma): 11 µM
- TGI (SK-MEL-5 melanoma): 23.3 µM
- GI50 (SK-OV-3 ovarian): 16.3 µM
- TGI (SK-OV-3 ovarian): 30.5 µM
- GI50 (SN12C renal): 6.3 µM
- TGI (SN12C renal): 23 µM
- GI50 (SNB-19 CNS): 16.6 µM
- TGI (SNB-19 CNS): 32.1 µM
- GI50 (SNB-75 CNS): 13.1 µM
- TGI (SNB-75 CNS): 25.9 µM
- GI50 (SR leukemia): 1.8 µM
- TGI (SR leukemia): 6.86 µM
- GI50 (SW-620 colon): 1.45 µM
- TGI (SW-620 colon): 3.09 µM
- GI50 (T-47D breast): 1.7 µM
- TGI (T-47D breast): 4.51 µM
- GI50 (TK-10 renal): 1.64 µM
- TGI (TK-10 renal): 3.43 µM
- GI50 (U251 CNS): 7.42 µM
- TGI (U251 CNS): 20.6 µM
- GI50 (UACC-257 melanoma): 1.69 µM
- TGI (UACC-257 melanoma): 3.5 µM
- GI50 (UACC-62 melanoma): 8.48 µM
- TGI (UACC-62 melanoma): 22.2 µM
- GI50 (UO-31 renal): 0.754 µM
- TGI (UO-31 renal): 2.15 µM
